Experimental findings from patent publication US20110306597A1, “Nicotinamide Derivatives” (priority 2008, published 2011) are described below.

As a reminder, the IC50 is the point on the concentration scale where inhibition reaches its midpoint.

Sequence of human recombinant H-PGDS (O60760 whole entry): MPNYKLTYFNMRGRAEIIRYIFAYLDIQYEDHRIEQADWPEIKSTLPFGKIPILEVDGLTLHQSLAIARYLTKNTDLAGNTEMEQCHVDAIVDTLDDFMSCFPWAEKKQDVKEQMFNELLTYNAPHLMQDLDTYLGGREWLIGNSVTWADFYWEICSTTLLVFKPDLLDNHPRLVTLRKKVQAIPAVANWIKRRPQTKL

In this test the target is human recombinant H-PGDS (Homo sapiens, UniProt O60760). The experiment in a line: Fluorescence Intensity h-PGDS TBA Enzyme Assay. It is filed as biochemical. Particulars: 1:175,000 human recombinant H-PGDS, highest inhibitor concentration typically 1 μM. In short, it runs like this:
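Recombinant human H-PGDS preincubated 10 min at room temperature with inhibitor in 100 mM Tris pH 8.0, 100 μM MgCl2, 2.5 mM glutathione, 0.5% DMSO; 5.0 μM PGH2 added, stopped after 42 s with FeCl2/citric acid. Remaining PGH2 measured as MDA–TBA fluorescence (ex 530/em 565 nm); IC50 by 4-parameter fit, 11 concentrations.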
As for `CCCOCCCNC(=O)c1cnc(-c2cccc(F)c2)c(Cl)c1` [Example 550, 5-Chloro-6-(3-fluorophenyl)-N-(3-propoxypropyl)nicotinamide], the IC50 amounted to 30.4 nM.

On to `COCCN1CCC2(CC1)CC(NC(=O)c1ccc(-c3cccc(F)c3)nc1)CO2` (stereo not shown) [Example 142, 6-(3-Fluorophenyl)-N-[8-(2-methoxyethyl)-1-oxa-8-azaspiro[4.5]dec-3-yl]nicotinamide], for which the IC50 worked out at 25.2 nM.

Regarding `CC(C)NC(=O)c1ccc(-c2ccc(F)cc2)nc1` [Example 503, 6-(4-Fluorophenyl)-N-isopropylnicotinamide], the IC50 was at least 1000 nM. Under `COC(=O)CNC(=O)[C@H](C)NC(=O)c1ccc(-c2cccc(F)c2)nc1` [Example 165, Methyl N-{[6-(3-fluorophenyl)pyridin-3-yl]carbonyl}-L-alanylglycinate] stands 20.8 nM; under `COCCCn1cnnc1CNC(=O)c1ccc(-c2cccc(F)c2)nc1` [Example 17, 6-(3-Fluorophenyl)-N-{[4-(3-methoxypropyl)-4H-1,2,4-triazol-3-yl]methyl}nicotinamide], 112 nM. In the case of `O=C(NCc1ccc(Cl)c(Cl)c1)c1ccc(-c2ccccc2)nc1` [Example 522, N-(3,4-Dichlorobenzyl)-6-phenylnicotinamide], the IC50 was found to be 25 nM. As for `O=C(NCc1cc(F)cc2c1OCOC2)c1ccc(-c2ccc(F)cc2)nc1` [Example 472, N-[(6-Fluoro-4H-1,3-benzodioxin-8-yl)methyl]-6-(4-fluorophenyl)nicotinamide], the figure is 256 nM; as for `COC(=O)c1ccc(CNC(=O)c2ccc(-c3ccccc3)nc2)cc1` [Example 523, Methyl 4-({[(6-phenylpyridin-3-yl)carbonyl]amino}methyl) benzoate], 14.1 nM; as for `O=C(NCC1CCCN(c2ncc3c(n2)CCOC3)C1)c1ccc(-c2cccc(F)c2)nc1` (stereo not shown) [Example 84, N-{[1-(7,8-Dihydro-5H-pyrano[4,3-d]pyrimidin-2-yl)piperidin-3-yl]methyl}-6-(3-fluorophenyl)nicotinamide], 13.8 nM.

Consider `Cc1cccc(-c2ccc(C(=O)NCc3nnc(-c4cccnc4)[nH]3)cn2)c1` [Example 448, 6-(3-Methylphenyl)-N-[(5-pyridin-3-yl-4H-1,2,4-triazol-3-yl)methyl]nicotinamide], for which the half-inhibitory concentration (IC50) is 9.13 nM. Under `O=C(NC1CCOCC1)c1ccc(-c2cccc(F)c2)nc1` [Example 191, 6-(3-Ffluorophenyl)-N-(tetrahydro-2H-pyran-4-yl)nicotinamide] stands 2.33 nM; under `COc1cccc(-c2ccc(C(=O)NCc3ccc(C)cc3)cn2)c1` [Example 484, 6-(3-Methoxyphenyl)-N-(4-methylbenzyl)nicotinamide], 178 nM. Take `COC(=O)CNC(=O)c1ccc(-c2cccc(F)c2)nc1` [Example 173, Methyl N-{[6-(3-fluorophenyl)pyridin-3-yl]carbonyl}glycinate]: the half-maximal inhibitory concentration (IC50) was determined as 82 nM. Under `O=C(NCc1ccccc1F)c1ccc(-c2ccccc2)nc1` [Example 380, N-(2-Fluorobenzyl)-6-phenylnicotinamide] stands 2.1 nM; under `CCCCCNC(=O)c1ccc(-c2ccccc2)nc1` [Example 381, N-Pentyl-6-phenylnicotinamide], 7.5 nM. Under `O=C(NCCN1CCCCC1=O)c1ccc(-c2cccc(F)c2)nc1` [Example 164, 6-(3-Fluorophenyl)-N-[2-(2-oxopiperidin-1-yl)ethyl]nicotinamide] stands 9.13 nM; under `O=C(NCCN1CCOC1=O)c1ccc(-c2cccc(F)c2)nc1` [Example 186, 6-(3-Fluorophenyl)-N-[2-(2-oxo-1,3-oxazolidin-3-yl)ethyl]nicotinamide], 34.6 nM; under `O=C(Nc1ccccc1)c1ccc(-c2ccc(F)cc2)nc1` [Example 256, 6-(4-Fluorophenyl)-N-phenylnicotinamide], 145 nM. Under `O=C(NCCN1CCCCC1)c1ccc(-c2ccc(F)cc2)nc1` [Example 324, 6-(4-Fluorophenyl)-N-(2-piperidin-1-ylethyl)nicotinamide] stands at least 1000 nM.
